Source: US11261201B2 (priority 2018, dated 2022)
In brackets after ≈: the same amount, converted by molar mass. Where two headings read alike, the source gives them in different places.

Assays:
H37RvMA = test: Tuberculosis Alamar Blue/Resazurin assay (MIC); assay type: cell-based; conditions: Mycobacterium tuberculosis, H37RV, read-out: WT H37Rv MTB Activity
E. coli = test: Gram negative MIC protocol (OD600, LB, 24 h); conditions: Escherichia coli
Description: (§1) Overnight bacterial cultures were grown in LB with no added antibiotics at 37° C. with shaking. A 1:1000 dilution of these cultures into LB was exposed to concentration gradients of compounds in 96-well plates (100 μL per well assay volume). Resulting plates were incubated at 37° C. for 24 h without shaking, and OD600 was measured at the end of the incubation. MICs were determined as the lowest concentrations at which OD600 remained at baseline.

A. baumannii = test: Gram negative MIC protocol (OD600, LB, 24 h); conditions: Acinetobacter baumannii
Description: as §1

[1] = read-out: MIC E. coli delta-TolC LB Media, E. coli delta-TolC, LB media, OD600
[2] = read-out: MIC WT E. coli LB Media, WT E. coli, LB media, OD600
[3] = read-out: MIC A. baumannii LB Media, A. baumannii, LB media, 24 h, OD600
[4] = read-out: MIC A. baumannii LB Media

Structure (SMILES)	MIC (H37RvMA; WT H37Rv MTB)	MIC (E. coli; [1])	MIC (E. coli; [2])	MIC (A. baumannii; [3])	MIC (H37RvMA)	MIC (A. baumannii; [4])
CC(NCc1ccccc1)C1Cc2ccccc21 (stereo not drawn) [B110]	> 150 µM	> 150 µM	> 150 µM	> 150 µM	–	–
COc1ccc(CCNCc2ccccc2)c2ccccc12 [B111]	33 µM (≈ 9.62 µg/mL)	150 µM (≈ 43.7 µg/mL)	> 150 µM	150 µM (≈ 43.7 µg/mL)	–	–
COc1ccc2c(c1)CCCC2CNCc1ccccc1 (stereo not drawn) [B112]	> 150 µM	> 150 µM	> 150 µM	> 150 µM	–	–
C[C@H](NCc1ccccc1)C1CCCc2ccccc21 (stereo partly drawn) [B113]	> 150 µM	> 150 µM	> 150 µM	> 150 µM	–	–
c1ccc(CNCCc2ccc3cc[nH]c3c2)cc1 [B114]	–	> 150 µM	> 150 µM	–	> 150 µM	> 150 µM
c1ccc(CNCCc2ccc3[nH]ncc3c2)cc1 [B115]	> 150 µM	> 150 µM	> 150 µM	> 150 µM	–	–
CN1CC2CCC1C(CNCc1ccccc1)C2 (stereo not drawn) [B116]	–	> 150 µM	> 150 µM	> 150 µM	> 150 µM	–
Cc1ccc2ncc(CCNCc3ccccc3)cc2c1 [B117]	> 150 µM	> 150 µM	> 150 µM	> 150 µM	–	–
c1ccc(CNCCC2CSc3ccccc3O2)cc1 (stereo not drawn) [B118]	> 150 µM	> 150 µM	> 150 µM	> 150 µM	–	–
c1ccc(CNCCc2ccnc3ccccc23)cc1 [B119]	> 150 µM	> 150 µM	> 150 µM	> 150 µM	–	–
FC1(F)Oc2ccc(CCNCc3ccccc3)cc2O1 [B120]	–	> 150 µM	> 150 µM	–	> 150 µM	> 150 µM
c1ccc(CNCCN2CCC3(CCCCC3)CC2)cc1 [B121]	> 150 µM	> 150 µM	> 150 µM	> 150 µM	–	–
C1=CC2CCC1CC2CNCc1ccccc1 (stereo not drawn) [B122]	150 µM (≈ 34.1 µg/mL)	> 150 µM	> 150 µM	> 150 µM	–	–
c1ccc(CNCC2CC3CCC2CC3)cc1 (stereo not drawn) [B123]	150 µM (≈ 34.4 µg/mL)	> 150 µM	> 150 µM	> 150 µM	–	–
c1ccc(CNCCN2CCCC3CCCCC32)cc1 (stereo not drawn) [B124]	> 150 µM	> 150 µM	> 150 µM	> 150 µM	–	–
c1ccc(CNC2CC23CCCCC3)cc1 (stereo not drawn) [B125]	> 150 µM	> 150 µM	> 150 µM	> 150 µM	–	–
c1ccc(CNCCN2CCCC3CCCC32)cc1 (stereo not drawn) [B126]	> 150 µM	> 150 µM	> 150 µM	> 150 µM	–	–
c1ccc(CNCC2CCCc3ccccc32)cc1 (stereo not drawn) [B127]	150 µM (≈ 37.7 µg/mL)	> 150 µM	> 150 µM	> 150 µM	–	–
c1ccc(CNCCC2CCCC2)cc1 [B128]	> 150 µM	> 150 µM	> 150 µM	> 150 µM	–	–
c1ccc(CNCCN2CCc3ccccc3C2)cc1 [B129]	> 150 µM	> 150 µM	> 150 µM	> 150 µM	–	–
CC(CNCc1ccccc1)N1CCc2ccccc2C1 (stereo not drawn) [B130]	> 150 µM	> 150 µM	> 150 µM	> 150 µM	–	–
CCC(CNCc1ccccc1)N1CCc2ccccc2C1 (stereo not drawn) [B131]	> 150 µM	> 150 µM	> 150 µM	> 150 µM	–	–
c1ccc(CNCCC2CCCCC2)cc1 [B132]	> 150 µM	85 µM (≈ 18.5 µg/mL)	124 µM (≈ 27 µg/mL)	150 µM (≈ 32.6 µg/mL)	–	–
c1ccc(CNCCc2ccc3ccccc3c2)cc1 [B133]	55 µM (≈ 14.4 µg/mL)	> 150 µM	> 150 µM	> 150 µM	–	–
